Laboratory results published in patent US20150189844A1, “METHOD FOR […] RECOMBINATION” (Biogemma, priority 2012, published 2015).
Where two headings read alike, the source gives them in different places.

What was measured:
I-SceI:GR [1] = details: one week
Experimental: (§1) Embryos isolated from selfed plants containing the TL and DL were placed onto a regeneration medium according to Ishida et al. (Ishida et al., 1996) lacking the kanamycin selective agent. For first experiment, LS-AS medium was complemented by 0, 30 or 50 μM dexamethasone and after one week transferred sequentially to LSD1.5, LSZ and ½LSF medium lacking dexamethasone and containing 50 mg·L−1 of kanamycin. For the second experiment, callus was developed for 3 days on LS-AS, 1 week on LSD1.5 and 3 weeks on LSZ medium. Then, callus was cultivated 1 week on LSZ medium complemented by 0 μM, 30 μM or 50 μM of dexamethasone and selected for 2 weeks on LSZ and then ½ LSF medium complemented by 50 mg·L−1 of kanamycin. GFP fluorescence of callus was visualized under the fluorescence stereomicroscope (Leica MZ16F) with a GFP2 filter.

I-SceI:GR [2] = tested on: I-SceI:GR
Experimental: as §1
Plant regeneration from maize leaves has not been reported but calli derived from immature maize embryos are routinely used to regenerate plants (Lu et al., 1983). Embryos isolated from immature kernels of selfed F2 plants containing the TL and the DL were placed on callus induction medium with dexamethasone at 0 μM (control), 30 μM or 50 μM.

## C[C@@H]1C[C@H]2[C@@H]3CCC4=CC(=O)C=C[C@]4(C)[C@@]3(F)[C@@H](O)C[C@]2(C)[C@@]1(O)C(=O)CO [Dexamethasone, dexamethasone]
I-SceI:GR [1]; TL1/DL calli, 30 μM
  Mutations in TL I-SceI site: 76
I-SceI:GR [1]; TL1/DL calli, 50 μM
  Mutations in TL I-SceI site: 76
I-SceI:GR [1]; TL2/DL calli, 30 μM
  Mutations in TL I-SceI site: 15
I-SceI:GR [1]; TL2/DL calli, 50 μM
  Mutations in TL I-SceI site: 36
I-SceI:GR [2]; TL1 × DL, 30 μM
  GT Frequency, discovered kanamycin resistant events/extracted embryos: 0.39%
I-SceI:GR [2]; TL1 × DL, 50 μM
  GT Frequency, discovered kanamycin resistant events/extracted embryos: 0.55%
I-SceI:GR [2]; TL1 × DL, 181 extracted embryos, 50 μM
  Number of kanamycin resistant events: 1
I-SceI:GR [2]; TL1 × DL, 255 extracted embryos, 30 μM in callus induction medium
  Number of kanamycin resistant events: 1
I-SceI:GR [2]; TL2 × DL, 30 μM
  GT Frequency, discovered kanamycin resistant events/extracted embryos: 0.53%
I-SceI:GR [2]; TL2 × DL, 50 μM
  GT Frequency, discovered kanamycin resistant events/extracted embryos: 0.27%
I-SceI:GR [2]; TL2 × DL, 374 extracted embryos, 50 μM
  Number of kanamycin resistant events: 1
I-SceI:GR [2]; TL2 × DL, 563 extracted embryos, 30 μM
  Number of kanamycin resistant events: 3
